Type in all cases: functional
The subject of experiment [1] is Hemi-diaphragm. The experiment in a line: Induction of glucose uptake in Rattus norvegicus Wistar (rat) hemi-diaphragm at 2 mg after 45 min by GOD/POD enzymatic method in presence of insulin.
The subject of experiment [2] is Hemi-diaphragm. Nature of the experiment: Induction of glucose uptake in Rattus norvegicus Wistar (rat) hemi-diaphragm at 2 mg after 45 min by GOD/POD enzymatic method.
A further experiment deals with A549. Nature of the experiment: Cytotoxicity against Homo sapiens (human) A549 cells after 3 days by SRB assay. Conditions: A549, 72 h. A general note: The SRB assay estimates cell density from bound dye.

In brackets after ≈: the same amount, converted by molar mass.

Take `CN(CCOc1ccc(CC2SC(=O)NC2=O)cc1)c1ccccn1` (stereo not given) [ROSIGLITAZONE]: the values for the Activity with Hemi-diaphragm [1] and in the experiment on Hemi-diaphragm [2] were 37 mg/dL and 15.5 mg/dL, respectively.
For `O=C1NC(=O)/C(=C/c2ccc(OCCOc3ccccc3Cl)cc2)S1`, the CC50 (in general, the concentration at which the toxic effect on the cells reaches its halfway point) in the experiment on A549 was determined as 100 µg/mL (≈ 266 µM). For the same molecule, the figures for the Activity in the experiment with Hemi-diaphragm [1] and with Hemi-diaphragm [2] were 22.5 mg/dL and 6 mg/dL, respectively.
